We go through ten compounds from patent US6989263B1, “Method for identifying and using compounds that inactivate HIV-1 and other retroviruses by attacking highly conserved zinc fingers in the viral nucleocapsid protein” (The United States of America as represented by the …, priority 1994, dated 2006).

SMILES strings stand for the structures. Entries after “also recorded” stand apart in the source; their conditions may differ. Where two headings read alike, the source gives them in different places.

One data set deals with T1, HIV-1 (MN) p7NC (Human immunodeficiency virus type 1 group M subtype B, UniProt P05888).
T1 construct: The NC protein of HIV-1 (MN) p7NC was expressed in E. coli; made in house; host or cells: E. coli (vector pMAL-c)
The data set can be described thus: Intrinsic Trp-37 fluorescence quenching of p7NC. The data set is classed as biochemical. The settings on record: for change in intrinsic fluorescence of p7NC on incubation: Trp-37 fluorescence, zinc-reconstituted p7NC. An excerpt: The NC protein of HIV-1 (MN) p7NC was expressed in E. coli. The coding sequence for HIV-1(MN) p7NC was cloned and expressed using an inducible E. coli promoter in the vector pMAL-c (New England Biolabs Inc., Beverly, Mass.). The protein was expressed as a maltose-binding fusion protein and released by proteolysis with Factor Xa. HIV-1(MN) p7NC was purified by HPLC and characterized, including complete amino acid sequence analysis. p7NC was purified by high-pressure liquid chromatography (HPLC) and reconstituted with two equivalents of zinc to generate native protein as described (M. F. Summers et al., Protein Sci. 1, 563 (1992)).
Coordination of Zn^+2 enhances the intrinsic fluorescence of the single tryptophan (Trp-37) in the second zinc finger. […] The initial phase of the reaction with Cu^+2 (T1/2<20 seconds) gave 70% quenching of the original fluorescence, followed by a much slower phase (T1/2 ca. 6 minutes), resulting in a final limiting quenching of 85%.
The first quenching phase was a second order reaction, whereas the second phase was independent of protein concentration or oxidizing species.

The next data set concerns the target T2, p7NC (Human immunodeficiency virus type 1 group M subtype B, UniProt P05888).
T2 construct: The NC protein of HIV-1 (MN) p7NC was expressed in E. coli; made in house; host or cells: E. coli (vector pMAL-c)
The data set can be described thus: HPLC analysis of reaction products of purified p7NC with reagent. In kind it is biochemical, HIV-1. Also noted: key to Protein (HPLC): reaction products / Protein (HPLC): reaction rate: formation of non-native, intra-protein disulfide links (designated “Disulfides”); some of the reagents form adducts with the cysteine residues as well (designated “Adducts”); slow: “Slow” reactions are those in which greater than 10% of the p7NC protein remained in its native form after the 10 minute incubation with reagent; very slow: “Very slow” reactions are those in which greater than 50% of the p7NC protein remained in its native form after the 10 minute incubation with reagent; fast: “Fast” reactions result in complete transformation of the p7NC protein to non-native conformations during the 10 minute incubation period. Conditions: for Protein (HPLC): reaction products / Protein (HPLC): reaction rate: 63 μM p7NC, 6 reagent : 1 protein, 10 minutes. From the text: Highly purified retroviral NC proteins can be produced by expression from vectors generated through recombinant DNA technology. These proteins when reconstituted with zinc (see, Summers, et al., Protein Science 1:563–567 (1992) for methods), provide the source of the NC proteins containing the zinc fingers that are the targets for attack by the compounds of this invention. When the zinc fingers in NC proteins react with identified compounds, the reaction produces a covalent change in the NC protein, and the modified protein can be separated from the unreacted protein by, for example, reversed phase HPLC.
Samples of p7NC and apo-p7 were reacted with varying amounts of cupric chloride and resulting products separated by HPLC. The reactions were carried out using 44.3 μM protein (p7NC or apo-p7) in 0.1 M Tris-HCl, pH 7.4, for 6 minutes at room temperature with varying concentrations of CuCl2 to achieve the indicated ratios of reactants, in a final volume of 0.7 ml. Chromatography was carried out on the resulting products at pH 2 (0.05% trifluoroacetic acid) on μBondapak™ C-18 (3.9×300 mm) at 1.0 ml/minute using an acetonitrile gradient (0–17%, 20 ml; 17–20%, 60 ml; 20–60%, 10 ml). Elution positions of unreacted protein (p7NC or apo-p7) are indicated as apo-p7.
A two-fold excess of NOBA was reacted with p7NC, and the products were separated by HPLC (FIG. 10) as described above for Cu^+2 and p7NC. Elution positions for the reactants (NOBA and unreacted p7NC) and products, reacted p7NC, NOBA, HABA and AzoxyBA are indicated and an elution profile is included in FIG. 10. NOBA and AzoxyBA were supplied by Octamer, Inc. (Mill Valley, Calif.) and used as HPLC standards.
The disulfide reagent of choice (each available from the Aldrich Chemical Company (Milwaukee, Wis.)) was incubated for 10 minutes with purified p7NC protein (63 μM) at a ratio of 6 molecules of reagent to 1 molecule of NC protein (there are 6 cysteine thiols per NC protein). The formation of non-native protein conformations was monitored by HPLC as described above. […] Generally, the inactivation proceeds by formation of non-native, intra-protein disulfide links (designated “Disulfides”), but some of the reagents form adducts with the cysteine residues as well (designated “Adducts”). “Slow” reactions are those in which greater than 10% of the p7NC protein remained in its native form after the 10 minute incubation with reagent. “Very slow” reactions are those in which greater than 50% of the p7NC protein remained in its native form after the 10 minute incubation with reagent. “Fast” reactions result in complete transformation of the p7NC protein to non-native conformations during the 10 minute incubation period.

The target in data set [1] is T3, HIV NC protein in intact virus (Human immunodeficiency virus type 1 group M subtype B, UniProt P05888).
T3 construct: endogenous in cells; host or cells: intact HIV virions
Briefly: Cross-linking of NC protein in intact HIV (non-reducing gel-mobility shift, western blot). Conditions: for X-link T-½ (min), HIV NC protein (top number): intact HIV generally 12.5 μM, reagent generally 25 μM; for X-link T-½ (min), HIV NC protein: HIV-1 @ 50 μM. In kind it is biochemical, HIV-1. An excerpt:
Purified concentrated retrovirus and antisera against the purified NC protein of the virus can be used to test the ability of a specific compound to penetrate the virus and react with the NC protein by forming disulfide complexes in the core of the virus. The compound is mixed with the whole retrovirus under reaction conditions appropriate for the compound. The virus is then removed from the reagent by centrifugation and disrupted in, e.g, standard SDS-PAGE sample buffer with (reduced) and without (non-reduced) 2-mercaptoethanol. The viral proteins are then separated by standard SDS-PAGE and the sample examined for the presence or absence of the monomeric NC protein in the non-reduced sample. Depending upon the virus used in the experiment and the conditions of electrophoresis, the NC protein can be visualized by protein staining methods, or by immuno-blot (e.g., western) methods. Compounds which react with the NC protein by attacking the zinc finger complexes and forming disulfide cross-linked products (i.e., which generate multimers in the mobility shift assay) inactivate the virus. Thus, compounds of interest (i.e., those which cause cross-linking) reduced the amount of monomeric NC protein detected.
In order to determine whether HIV-1MN was inactivated by NOBA, the virus was incubated with varying concentrations of NOBA (3.0, 0.3, 0.03 and 0 mM) as in Table 1. The reaction products were pelleted by centrifugation, and separated by SDS-PAGE under reducing (2% 2-mercaptoethanol, panel A), or non-reducing conditions (panel B). p7NC was visualized by immunoblot analysis using monospecific rabbit antisera to the purified NC proteins as per L. E. Henderson et al., J. Virol. 66:1856 (1992).
Disulfide reagents were further tested for their ability to disrupt NC structure in the virus, based on their ability to cause inter-NC cysteine disulfide bonds (i.e., cross-linking) in the intact virus. The formation of inter-NC cysteine disulfides creates NC multimers, which migrate through a non-reducing gel at a different rate than NC monomers, as described above. Intact HIV virus (generally 12.5 μM) was exposed to the specified reagent (generally 25 μM) for varying lengths of time and electrophoresed through a non-reducing SDS-polyacrylamide gel. HIV NC monomers and multimers were visualized by western blot analysis as described above in Example 3. The approximate time required to cross-link one-half of the NC proteins in the virus at the specified reaction conditions was then determined. […] The top number in the cells of the X-link column in Table 2 refers to the approximate time in minutes required for one-half of the HIV NC proteins to become cross-linked.

Data set [2] addresses T4, p11 Nucleocapsid Protein (p11NC) (Equine infectious anemia virus, UniProt P69732).
T4 construct: a variety of disulfide reagents cross-link the p11NC protein in intact viral particles; endogenous in cells; host or cells: intact EIAV particles
Briefly: Cross-linking of p11NC in intact EIAV particles (gel-mobility shift). In kind it is biochemical. The settings on record: intact EIAV (50 μM), 4× the HIV assay concentrations. An excerpt:
Essentially the same strategy was employed to analyze the ability of the various disulfide reagents to cross-link the p11 Nucleocapsid Protein (p11NC) in intact Equine Infectious Anemia Virus (EIAV) particles. The advantages of working with EIAV include the fact that it is not a human pathogen, and that the p11NC protein can be visualized by simple coomassie-blue staining after performing the gel-mobility shift assay (rather than by western blotting as for HIV) described above. The reaction conditions were essentially the same for the EIAV assays as for the HIV assays described above, except that the concentration of virus and disulfide reagent was 4× the concentrations used in the HIV assay above. The second number in each cell in the X-link column in Table 2 represents the time required to cross-link one-half of the p11NC protein in the intact viral particles. […] The bottom number in each cell of the X-link column, unless otherwise indicated, represents the concentration of EIAV used in the assay. Blank cells throughout Table 2 indicate that the compound has yet to be tested for the specified property.

The conditions of data set [3]: cited from earlier work.

T4 sequence (P69732 360-435): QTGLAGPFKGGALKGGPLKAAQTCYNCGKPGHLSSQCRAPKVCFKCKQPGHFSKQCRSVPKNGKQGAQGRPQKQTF

As to `[Cl][Cu][Cl]` [Cu^+2, cupric chloride], the “change in intrinsic fluorescence of p7NC on incubation” value on HIV-1 (MN) p7NC is on record as “rapid biphasic decrease in fluorescence”. For the same compound, on HIV-1 (MN) p7NC (Zn^+2-coordinated p7NC), the final limiting quenching is 85% and the “quenching of the original fluorescence, initial phase” value worked out at 70%. In addition, on p7NC (2, 4 or 8 Cu^+2 per p7NC, 44.3 μM protein, 6 minutes, pH 7.4), the “total protein recovered in peak B” value is given as “approximately one half”.

Regarding `CN(C)C(=S)SSC(=S)N(C)C` [Tetramethylthiuram Disulfide], in data set [1], the “cross-linking of the HIV-1 NC protein in intact virus (gel-mobility shift), in words” value (shortened to “cross-linking … (gel-mobility shift), in words”) was “caused a cross-linking of the HIV-1 NC protein” and the “X-link T-½ (min), HIV NC protein (top number)” value (from here on “X-link T-½ (min) … (top number)”) is reported as roughly 30 min. At p7NC, the “Protein (HPLC): reaction products” value is reported as “Disulfides” and the “Protein (HPLC): reaction rate” value is given as “(slow) (“Slow” reactions are those in which greater than 10% of the p7NC protein remained in its native form after the 10 minute incubation with reagent)”. Further, the “X-link T-½ (min), EIAV p11NC (second number)” value (from here on “X-link T-½ (min), EIAV p11NC”) in data set [2] is roughly 15 min. Moreover, the “Toxicity (LD-50, mouse)” value in data set [3] (IP) was 0.070 g/kg. In data set [3] (oral), the “Toxicity (LD-50, mouse)” value is given as 1.35 g/kg.

Regarding `N#Cc1ccccc1SSc1ccccc1C#N` [2,2 Dithiobis(benzonitrile)], the “X-link T-½ (min) … (top number)” value in data set [1] is recorded as <<15 min. On p7NC, the “Protein (HPLC): reaction products” value is recorded as “Disulfides; also recorded: Adducts”. For the same compound, the “X-link T-½ (min), EIAV p11NC” value in data set [2] was roughly 15 min.

In the case of `[O-][n+]1ccccc1SSc1cccc[n+]1[O-]` [2,2-Dithiobis(Pyridine N-Oxide)], in data set [1], the “cross-linking … (gel-mobility shift), in words” value is “caused a cross-linking of the HIV-1 NC protein” and the “X-link T-½ (min) … (top number)” value is listed as <<15 min. Besides, the “Protein (HPLC): reaction products” value at p7NC is on record as “Disulfides”. Further, the “X-link T-½ (min), EIAV p11NC” value in data set [2] is listed as less than 15 min.

Take `c1ccc2sc(SSc3nc4ccccc4s3)nc2c1` [2,2 Dithiobis(benzothiazole)]: in data set [1], the “cross-linking … (gel-mobility shift), in words” value is reported as “caused a cross-linking of the HIV-1 NC protein” and the “X-link T-½ (min), HIV NC protein” value is recorded as roughly 60 min. The “Protein (HPLC): reaction products” value at p7NC is recorded as “Disulfides”. Further, the “Toxicity (LD-50, mouse)” value in data set [3] (route not given) is on record as 7.0 g/kg.

Consider `CCCCN(CCCC)C(=S)SSC(=S)N(CCCC)CCCC` [Tetrabutylthiuram Disulfide], for which, in data set [1], the “cross-linking … (gel-mobility shift), in words” value was “caused a cross-linking of the HIV-1 NC protein” and the “X-link T-½ (min) … (top number)” value is given as roughly 30 min. On p7NC, the “Protein (HPLC): reaction products” value is reported as “Disulfides; also recorded: Adducts” and the “Protein (HPLC): reaction rate” value is “(slow) (“Slow” reactions are those in which greater than 10% of the p7NC protein remained in its native form after the 10 minute incubation with reagent)”. Moreover, the “X-link T-½ (min), EIAV p11NC” value in data set [2] is on record as greater than 60 min. Further, the “Toxicity (LD-50, mouse)” value in data set [3] (IP) was 2.35 g/kg.

Consider `O=C(O)c1ccc(SSc2ccc(C(=O)O)cn2)nc1` [6,6-Dithiodinicotinic Acid], for which the “X-link T-½ (min), HIV NC protein” value in data set [1] was roughly 60 min. At p7NC, the “Protein (HPLC): reaction products” value is given as “Disulfides; also recorded: Adducts” and the “Protein (HPLC): reaction rate” value is given as “(slow) (“Slow” reactions are those in which greater than 10% of the p7NC protein remained in its native form after the 10 minute incubation with reagent)”.

With `CC(C)n1cc(C(C)(C)C)nc1SSc1nc(C(C)(C)C)cn1C(C)C` [2,2-Dithiobis(4-Tert-Butyl-1-Isopropyl)-Imidazole], the “X-link T-½ (min), HIV NC protein” value in data set [1] is given as >>60 min. Besides, the “Protein (HPLC): reaction products” value on p7NC was “Disulfides”.

In the case of `CC(C)N(C(=S)SSC(=S)N(C(C)C)C(C)C)C(C)C` [Tetraisopropylthiuram Disulfide], in data set [1], the “cross-linking … (gel-mobility shift), in words” value was “caused a cross-linking of the HIV-1 NC protein” and the “X-link T-½ (min) … (top number)” value is given as greater than 15 min. In addition, the “Protein (HPLC): reaction products” value on p7NC is listed as “Disulfides”. For the same compound, the “X-link T-½ (min), EIAV p11NC” value in data set [2] was roughly 15 min.

With `CC(=O)[O-].CC(=O)[O-].CC(=O)[O-].[Fe+3]` [ferric acetate], the “change in intrinsic fluorescence of p7NC on incubation” value at HIV-1 (MN) p7NC is on record as “rapid biphasic decrease in fluorescence”.
